Data from patent US10633419B2, “Immunomodulators” (BRISTOL-MYERS SQUIBB COMPANY, priority 2014, dated 2020).
Positions of bridges follow the written chain, without caps; N, C: chain ends. Non-standard residues stand in square brackets, D forms with d. Residues, ends and D or L forms follow the SMILES beside them. *: point of attachment. X28 = O=C(O)CCCCCCCCCCNC(=O)CCC(=O)NCCCOCCOCCOCCCNC(=O)CCC(=O)NCCCOCCOCCOCCCN*; X13 = O=C(O)CCCCCCCCCCCCCCC(=O)N[C@@H](CCC(=O)NCCCOCCOCCOCCCN*)C(=O)O; Ala(1-CH2COOH-inden-3-yl) = N[C@@H](CC1=CC(CC(=O)O)c2ccccc21)C(=O)O; X11 = O=C(O)CCCCCCCCCCCCC(=O)N[C@@H](CCC(=O)NCCCOCCOCCOCCCN*)C(=O)O; X15 = O=C(O)CCCCCCCCCCNC(=O)CCCCCCCCCCNC(=O)CCC(=O)NCCCOCCOCCOCCCN*; Trp(1-CH2COOH) = N[C@@H](Cc1cn(CC(=O)O)c2ccccc12)C(=O)O; Palmitoyl = CCCCCCCCCCCCCCCC(=O)*; Hyp = O=C(O)[C@@H]1C[C@@H](O)CN1; NHhexadecyl = CCCCCCCCCCCCCCCCN*; Undecanoyl = CCCCCCCCCCC(=O)*; NMeNle = CCCC[C@H](NC)C(=O)O; NMeA = CN[C@@H](C)C(=O)O; Pra = C#CC[C@H](N)C(=O)O; Aun = NCCCCCCCCCCC(=O)O; Dab = NCC[C@H](N)C(=O)O; Dap = NC[C@H](N)C(=O)O; Sar = CNCC(=O)O

Each compound was assayed against T1, PD-L1 (Homo sapiens, UniProt Q9NZQ7) (assay: PD-1/PD-L1 Homogenous Time-Resolved Fluorescence (HTRF) binding assay (PD-1-Ig/PD-L1-His)). Conditions: not given.
T1 construct: hPDL1(19-239)-TVMV-His; made in house; host or cells: HEK293T
In short: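 Inhibitors pre-incubated 15 min with PD-L1-His (10 nM final), then PD-1-Ig (20 nM final) added for 15 min in dPBS/0.1% BSA/0.05% Tween-20. Eu-cryptate anti-Ig (1 nM) and APC anti-His (20 nM) added, 30 min equilibration, 665/620 nm HTRF ratio read.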

T1 sequence (Q9NZQ7 with tags, fused parts or gaps): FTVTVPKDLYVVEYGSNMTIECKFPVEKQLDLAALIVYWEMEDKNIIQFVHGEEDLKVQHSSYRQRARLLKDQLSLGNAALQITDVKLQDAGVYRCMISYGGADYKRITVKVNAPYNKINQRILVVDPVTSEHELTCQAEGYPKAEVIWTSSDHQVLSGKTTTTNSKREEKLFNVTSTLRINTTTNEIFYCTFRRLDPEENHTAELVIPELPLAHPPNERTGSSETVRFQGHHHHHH

`CCCC[C@H]1C(=O)N(C)[C@@H](CCCC)C(=O)N[C@@H](CCC(=O)O)C(=O)N[C@H](C(=O)NCC(=O)N[C@@H](Cc2cn(CCOCCOCCOCCOC(=O)CCC(=O)Oc3c(C)c(C)c4c(c3C)CC[C@@](C)(CCC[C@H](C)CCC[C@H](C)CCCC(C)C)O4)nn2)C(=O)NCC(N)=O)CSCC(=O)N[C@@H](Cc2ccc(O)cc2)C(=O)N(C)[C@@H](C)C(=O)N[C@@H](CC(=O)O)C(=O)N2CCC[C@H]2C(=O)N[C@@H](Cc2c[nH]cn2)C(=O)N[C@@H](CCCCN)C(=O)N2C[C@H](O)C[C@H]2C(=O)N[C@@H](Cc2c[nH]c3ccccc23)C(=O)N[C@@H](CCCCN)C(=O)N[C@@H](Cc2c[nH]c3ccccc23)C(=O)N1C` [Example 14060] gave an IC50 of 100 to 1600 nM.

Same assay, conditions: inhibition of PD-1-Ig binding to PD-L1-TVMV-His; value given as range class; read-out: HTRF IC50

First: CCCC[C@H]1C(=O)N(C)[C@@H](CCCC)C(=O)N[C@@H](CC(C)C)C(=O)N[C@H](C(=O)NCCCOCCOCCOCCCNC(=O)CCC(=O)NCCCCCCCCCCC(=O)NCCCCCCCCCCC(=O)O)CSCC(=O)N[C@@H](Cc2ccc(O)cc2)C(=O)N(C)[C@@H](C)C(=O)N[C@@H](CC(N)=O)C(=O)N2CCC[C@H]2C(=O)N[C@@H](CN)C(=O)N[C@@H](CCC(N)=O)C(=O)N2C[C@H](O)C[C@H]2C(=O)N[C@@H](Cc2c[nH]c3ccccc23)C(=O)N[C@@H](CO)C(=O)N[C@@H](Cc2cn(CC(=O)O)c3ccccc23)C(=O)N1C [Example 11087] ({CH2CO}-Y[NMeA]NP[Dap]Q[Hyp]WS[Trp(1-CH2COOH)][NMeNle][NMeNle]LC-X15; thioether N-14)
Second: CCCC[C@H]1C(=O)N(C)[C@@H](CCCC)C(=O)N[C@@H](CC(C)C)C(=O)N[C@H](C(=O)NCCCOCCOCCOCCCNC(=O)CCC(=O)NCCCOCCOCCOCCCNC(=O)CCC(=O)NCCCCCCCCCCC(=O)O)CSCC(=O)N[C@@H](Cc2ccc(O)cc2)C(=O)N(C)[C@@H](C)C(=O)N[C@@H](CC(N)=O)C(=O)N2CCC[C@H]2C(=O)N[C@@H](CN)C(=O)N[C@@H](CCC(N)=O)C(=O)N2C[C@H](O)C[C@H]2C(=O)N[C@@H](Cc2c[nH]c3ccccc23)C(=O)N[C@@H](CO)C(=O)N[C@@H](Cc2cn(CC(=O)O)c3ccccc23)C(=O)N1C [Example 11088] ({CH2CO}-Y[NMeA]NP[Dap]Q[Hyp]WS[Trp(1-CH2COOH)][NMeNle][NMeNle]LC-X28; thioether N-14)
The IC50 of the first is lower: 10 to 99 nM for the first, 100 to 1600 nM for the second.

Compared with `C#CC[C@H](NC(=O)CNC(=O)[C@@H]1CSCC(=O)N[C@@H](Cc2ccc(O)cc2)C(=O)N(C)[C@@H](C)C(=O)N[C@@H](CC(N)=O)C(=O)N2CCC[C@H]2C(=O)N[C@@H](CN)C(=O)N[C@@H](CC(C)C)C(=O)N2C[C@H](O)C[C@H]2C(=O)N[C@@H](Cc2c[nH]c3ccccc23)C(=O)N[C@@H](CCN)C(=O)N[C@@H](Cc2cn(CC(=O)O)c3ccccc23)C(=O)N(C)[C@@H](CCCC)C(=O)N(C)[C@@H](CCCC)C(=O)N[C@@H](CC(C)C)C(=O)N1)C(=O)O` [INT 1300V] ({CH2CO}-Y[NMeA]NP[Dap]L[Hyp]W[Dab][Trp(1-CH2COOH)][NMeNle][NMeNle]LCG[Pra]-OH; thioether N-14), `CCCC[C@H]1C(=O)N(C)[C@@H](CCCC)C(=O)N[C@@H](CC(C)C)C(=O)N[C@H](C(=O)NCC(=O)NCCCOCCOCCOCCCNC(=O)CC[C@H](NC(=O)CCCCCCCCCCCCC(=O)O)C(=O)O)CSCC(=O)N[C@@H](Cc2ccc(O)cc2)C(=O)N(C)[C@@H](C)C(=O)N[C@@H](CC(N)=O)C(=O)N2CCC[C@H]2C(=O)N[C@@H](CN)C(=O)N[C@@H](CC(C)C)C(=O)N2C[C@H](O)C[C@H]2C(=O)N[C@@H](Cc2c[nH]c3ccccc23)C(=O)N[C@@H](CCN)C(=O)N[C@@H](Cc2cn(CC(=O)O)c3ccccc23)C(=O)N1C` [Example 11260] ({CH2CO}-Y[NMeA]NP[Dap]L[Hyp]W[Dab][Trp(1-CH2COOH)][NMeNle][NMeNle]LCG-X11; thioether N-14) is lower in IC50: 10 to 99 nM for the first, 0.3 to 9.9 nM for the second.

First: CCCCCCCCCCCCCC(=O)NCc1cn(CC[C@H](NC(=O)CNC(=O)[C@@H]2CSCC(=O)N[C@@H](Cc3ccc(O)cc3)C(=O)N(C)[C@@H](C)C(=O)N[C@@H](CC(N)=O)C(=O)N3CCC[C@H]3C(=O)N[C@@H](CN)C(=O)N[C@@H](CC(C)C)C(=O)N3C[C@H](O)C[C@H]3C(=O)N[C@@H](Cc3c[nH]c4ccccc34)C(=O)N[C@@H](CO)C(=O)N[C@@H](Cc3csc4ccccc34)C(=O)N(C)[C@@H](CCCC)C(=O)N(C)[C@@H](CCCC)C(=O)N[C@@H](CCCNC(=N)N)C(=O)N2)C(N)=O)nn1 [Example 13051]
Second: CCCCCCCCCCCCCCCC(=O)NCCCC[C@H](NC(=O)CNC(=O)[C@@H]1CSCC(=O)N[C@@H](Cc2ccc(O)cc2)C(=O)N(C)[C@@H](C)C(=O)N[C@@H](CC(N)=O)C(=O)N2CCC[C@H]2C(=O)N[C@@H](CCN)C(=O)N[C@@H](CC(C)C)C(=O)N2C[C@H](O)C[C@H]2C(=O)N[C@@H](Cc2c[nH]c3ccccc23)C(=O)N[C@@H](CO)C(=O)N[C@@H](Cc2c[nH]c3ccccc23)C(=O)N(C)[C@@H](CCCC)C(=O)N(C)[C@@H](CCCC)C(=O)N[C@@H](CCCNC(=N)N)C(=O)N1)C(N)=O [Example 11020] ({CH2CO}-Y[NMeA]NP[Dab]L[Hyp]WSW[NMeNle][NMeNle]RCGK(Palmitoyl)-NH2; thioether N-14)
The IC50 of the first is lower: 10 to 99 nM for the first, 100 to 1600 nM for the second.

`CCCCCCCCCCC(=O)NCCCC[C@H](NC(=O)[C@H](CC(=O)O)NC(=O)[C@@H]1CSCC(=O)N[C@@H](Cc2ccc(O)cc2)C(=O)N(C)[C@@H](C)C(=O)N[C@@H](CC(N)=O)C(=O)N2CCC[C@H]2C(=O)N[C@@H](Cc2cnc[nH]2)C(=O)N[C@@H](CCC(=O)O)C(=O)N2C[C@H](O)C[C@H]2C(=O)N[C@@H](Cc2c[nH]c3ccccc23)C(=O)N[C@@H](CCN)C(=O)N[C@@H](Cc2cn(CC(=O)O)c3ccccc23)C(=O)N(C)[C@@H](CCCC)C(=O)N(C)[C@@H](CCCC)C(=O)N[C@@H](CC(C)C)C(=O)N1)C(N)=O` [Example 11011] ({CH2CO}-Y[NMeA]NPHE[Hyp]W[Dab][Trp(1-CH2COOH)][NMeNle][NMeNle]LCDK(Undecanoyl)-NH2; thioether N-14) and `CCCCCCCCCCC(=O)NCCCC[C@H](NC(=O)[C@H](CCC(=O)O)NC(=O)CNC(=O)[C@@H]1CSCC(=O)N[C@@H](Cc2ccc(O)cc2)C(=O)N(C)[C@@H](C)C(=O)N[C@@H](CC(N)=O)C(=O)N2CCC[C@H]2C(=O)N[C@@H](Cc2cnc[nH]2)C(=O)N[C@@H](CCC(=O)O)C(=O)N2C[C@H](O)C[C@H]2C(=O)N[C@@H](Cc2c[nH]c3ccccc23)C(=O)N[C@@H](CO)C(=O)N[C@@H](Cc2c[nH]c3ccccc23)C(=O)N(C)[C@@H](CCCC)C(=O)N(C)[C@@H](CCCC)C(=O)N[C@@H](CC(C)C)C(=O)N1)C(N)=O` [Example 11010] ({CH2CO}-Y[NMeA]NPHE[Hyp]WSW[NMeNle][NMeNle]LCGEK(Undecanoyl)-NH2; thioether N-14) fall in the same range of IC50: 10 to 99 nM for the first, 10 to 99 nM for the second.

Compared with `CCCC[C@H]1C(=O)N(C)[C@@H](CCCC)C(=O)N[C@@H](CC(C)C)C(=O)N[C@H](C(=O)N(C)CC(=O)NCCCOCCOCCOCCCNC(=O)CC[C@H](NC(=O)CCCCCCCCCCCCCCC(=O)O)C(=O)O)CSCC(=O)N[C@@H](Cc2ccc(O)cc2)C(=O)N(C)[C@@H](C)C(=O)N[C@@H](CC(N)=O)C(=O)N2CCC[C@H]2C(=O)N[C@@H](CN)C(=O)N[C@@H](CC(C)C)C(=O)N2C[C@H](O)C[C@H]2C(=O)N[C@@H](Cc2c[nH]c3ccccc23)C(=O)N[C@@H](CCN)C(=O)N[C@@H](Cc2cn(CC(=O)O)c3ccccc23)C(=O)N1C` [Example 11171] ({CH2CO}-Y[NMeA]NP[Dap]L[Hyp]W[Dab][Trp(1-CH2COOH)][NMeNle][NMeNle]LC[Sar]-X13; thioether N-14), `CCCCCCCCCCCCCCCCNC(=O)CNC(=O)CNC(=O)[C@@H]1CSCC(=O)N[C@@H](Cc2ccc(O)cc2)C(=O)N(C)[C@@H](C)C(=O)N[C@@H](CC(N)=O)C(=O)N2CCC[C@H]2C(=O)N[C@@H](CCN)C(=O)N[C@@H](CC(C)C)C(=O)N2C[C@H](O)C[C@H]2C(=O)N[C@@H](Cc2c[nH]c3ccccc23)C(=O)N[C@@H](CO)C(=O)N[C@@H](Cc2c[nH]c3ccccc23)C(=O)N(C)[C@@H](CCCC)C(=O)N(C)[C@@H](CCCC)C(=O)N[C@@H](CCCNC(=N)N)C(=O)N1` [Example 11104] ({CH2CO}-Y[NMeA]NP[Dab]L[Hyp]WSW[NMeNle][NMeNle]RCGG-NHhexadecyl; thioether N-14) is higher in IC50: 0.3 to 9.9 nM for the first, 100 to 1600 nM for the second. The first is the more potent here.

First: CCCC[C@H]1C(=O)N(C)[C@@H](CCCC)C(=O)N[C@@H](CCC(=O)O)C(=O)N[C@H](C(=O)NCC(=O)N[C@@H](Cc2cn(CC[C@H](NC(=O)CCCCCCCCCCCCCCC(=O)O)C(=O)O)nn2)C(N)=O)CSCC(=O)N[C@@H](Cc2ccc(O)cc2)C(=O)N(C)[C@@H](C)C(=O)N[C@@H](CC(=O)O)C(=O)N2CCC[C@H]2C(=O)N[C@@H](Cc2c[nH]cn2)C(=O)N[C@@H](CCC(N)=O)C(=O)N2C[C@H](O)C[C@H]2C(=O)N[C@@H](Cc2c[nH]c3ccccc23)C(=O)N[C@@H](CO)C(=O)N[C@@H](Cc2c[nH]c3ccccc23)C(=O)N1C [Example 14068]
Second: CCCC[C@H]1C(=O)N(C)[C@@H](CCCC)C(=O)N[C@@H](CC(C)C)C(=O)N[C@H](C(=O)NCC(=O)NCCCCCCCCCCC(=O)O)CSCC(=O)N[C@@H](Cc2ccc(O)cc2)C(=O)N(C)[C@@H](C)C(=O)N[C@@H](CC(N)=O)C(=O)N2CCC[C@H]2C(=O)N[C@@H](Cc2cnc[nH]2)C(=O)N[C@@H](CCC(=O)O)C(=O)N2C[C@H](O)C[C@H]2C(=O)N[C@@H](Cc2c[nH]c3ccccc23)C(=O)N[C@@H](CCN)C(=O)N[C@@H](CC2=CC(CC(=O)O)c3ccccc32)C(=O)N1C (stereo partly shown) [Example 11077] ({CH2CO}-Y[NMeA]NPHE[Hyp]W[Dab][Ala(1-CH2COOH-inden-3-yl)][NMeNle][NMeNle]LCG[Aun]-OH; thioether N-14)
The IC50 of the first is higher: 10 to 99 nM for the first, 0.3 to 9.9 nM for the second. The second is the more potent here.
